Source: US6756384B2, “Imidazole compounds” (Novo Nordisk A/S, priority 2000, dated 2004)
Where a name gives a salt, the structure may show the parent alone.

SMILES | melting point
C[C@@H](NC(=O)C1CCc2[nH]cnc2C1)c1cccc2ccccc12.Cl (some centres unmarked) | 84 to 85 °C
Cl.O=C(NCc1cccc2ccccc12)C1CCc2[nH]cnc2C1 (centres unmarked) | 142 to 144 °C
Cl.O=C(Cc1ccc(Cl)cc1)NC1CCc2[nH]cnc2C1 (centres unmarked) | 222 to 224 °C
Cl.O=C(NCCCc1ccc(Cl)cc1)C1CCc2[nH]cnc2C1 (centres unmarked) | 146 to 148 °C
O=C(NCc1c(Cl)cccc1Oc1ccccc1)C1CCc2[nH]cnc2C1 (centres unmarked) [Example 22, 4,5,6,7-Tetrahydro-1H-benzimidazole-5-carboxylic Acid N-(2-Chloro-6-phenoxy-benzyl)amide] | 197 to 199 °C

Continued, values first:

melting point | SMILES
130 to 132 °C | O=C(NCc1ccccc1)C1CCc2[nH]cnc2C1.O=C(O)C(=O)O (centres unmarked)
197 to 199 °C | O=C(NCCc1ccccc1)C1CCc2[nH]cnc2C1.O=C(O)C(=O)O (centres unmarked)
165 to 167 °C | O=C(NCc1ccccc1Cl)C1CCCc2[nH]cnc21 (centres unmarked) (as salt: hydrochloride) [Example 89, 4,5,6,7-Tetrahydro-1H-benzimidazole-4-carboxylic acid 2-chlorobenzylamide]
211 to 213 °C | CN(Cc1ccccc1)C(=O)C1CCCc2[nH]cnc21 (centres unmarked) (as salt: hydrochloride) [Example 90, 4,5,6,7-Tetrahydro-1H-benzimidazole-4-carboxylic acid benzylmethylamide]
177 to 179 °C | O=C(NCCc1ccccc1)C1CCCc2[nH]cnc21 (centres unmarked) (as salt: hydrochloride) [Example 91, 4,5,6,7-Tetrahydro-1H-benzimidazole-4-carboxylic acid phenethylamide]
158 to 160 °C | C[C@H](NC(=O)C1CCc2[nH]cnc2C1)c1cccc2ccccc12 (some centres unmarked) [Example 1]
